From patent US10233143B2, “Pseudoceramide compound, and external use skin preparation composition containing same” (AE KYUNG INDUSTRIAL CO., LTD, priority 2014, dated 2019)

What was measured:
[1] = Strengthening internal hair tissues: hair breakage after 10,000 brushings (Experimental Example 3); conditions: for Numbers of broken hairs: hair essence with 0.2 wt % of the substance applied once, among 4,000 strands after 10,000 brushings, untreated 89; for Hair breakage improvement rate: hair essence with 0.2 wt % of the substance, versus untreated hairs
Experimental: A formulation of hair essence including novel compounds comprising pseudoceramide prepared in Example 7, a formulation of hair essence including conventional pseudoceramide prepared in Comparative Example 5, a formulation of hair essence without pseudoceramide prepared in Comparative Example 6 were evaluated in view of internal hair tissue strengthening effect. The internal hair tissue strengthening effect was tested in the following manner.
After hairs damaged by permanent weaving, bleaching, shampooing, thermal stimulation, brushing and so on were prepared, ceramide administered essence was applied once to the damaged hairs. In order to evaluate strengths of internal tissues of the hair, after the hair was brushed 10,000 times, a hair breakage improvement rate was calculated using the number of broken strands of untreated hairs and the number of broken strands of treated hairs. The number of hairs used in the experiment was 4,000 in total for each sample.
The hair breakage improvement rate was calculated by the following equation: Breakage improvement rate (%)=(Number of broken strands of untreated hairs−Number of broken strands of treated hairs)/Number of broken strands of untreated hairs

[2] = tested on: Propionibacterium acnes (ATCC 6919); assay: Minimum inhibitory concentration against Propionibacterium acnes (agar medium); assay type: cell-based; conditions: media treated with the sample
Experimental: To investigate anti-microvial activity of the pseudoceramide compound represented by Formula 3 according to the present invention against propionibacterium acnes, the minimum inhibitory concentration (MIC) of the pseudoceramide sample was measured in the following manner. The sample to be tested was added to reinforced clostridial agar medium (commercially available from Difco Co.) in an amount of 0.06 to 1.0%, followed by solidification of the medium. The suspension of pre-incubated Propionibacterium acnes ATCC 6919 was streaked on the surface of the medium and the medium was incubated for 3 days at 37° C. under anaerobic condition.

[3] = tested on: HaCaT human keratinocyte cells; assay: Cytotoxicity assay (MTT); assay type: cell-based; conditions: one day incubation, absorbance 540 nm
Experimental: Extents of citotoxicity were measured using HaCaT human keratinocyte cells. The HaCaT human keratinocyte cells were maintained in Dulbecco's modified Eagle's medium (DMEM) supplemented with 10% fetal bovine serum (FBS)] and then seeded onto 96-well plates with a concentration of 6×10^3 cells to be cultured at 37° C. in a 5% CO2 atmosphere for one day. Then, the DMEM was replaced with a new one and samples were treated by a serial dilution method with various concentrations ranging from 2.5 mM and then incubated for one day. After one day, 10 μl MTT reagents were treated with a 5 mg/mL concentration in media and the HaCaT cells were then incubated at 37° C. in a 5% CO2 atmosphere for 4 hours. The media were removed and 150 μl DMSO reagent was added to each well to dissolve violet crystals. Absorbance at 540 nm was measured.
A reaction solution without a sample was used as a negative control group. A cell growth rate for each sample solution was calculated by the following equation (1) and the results are shown in FIG. 7: Cell growth rate (%)=A/B×100 (1)
B: Absorbance of negative control group

Row | SMILES | Numbers of broken hairs [1] | Hair breakage improvement rate [1] [%] | growth of strain in treated media (FIG. 8) [2] | half maximum inhibitory concentration (IC50), cell growth rate [3] [ppm]
1 | CCCCCCCC/C=C/CCCCCCCCNC(=O)CC(/C=C/CCCCCCCCCC)C(=O)O (stereo not drawn) [Formula 3] | 31 | 64 | no strain was expressed | 516.83
2 | CCCCCCCCCCCCCCCCCC(=O)N[C@@H](CO)[C@H](O)[C@H](O)CCCCCCCCCCCCCC [ceramide 3, reference compound] | 63 | 27 | – | –
